# Measurements taken from ChEMBL document CHEMBL2202958, “Development of potent macrocyclic inhibitors of genotype 3a HCV NS3/4A protease” (Bioorg Med Chem Lett, 2012).
# What was measured:
# [1] = tested on: Hepatitis C virus; test: Antiviral activity against HCV1b con1 infected in human Huh-7 cells assessed as inhibition of viral replication after 24 hrs in presence of 10% fetal bovine serum; assay type: functional, organism-based, Hepacivirus hominis; conditions: Con1, Huh-7, 24 h
# [2] = Inhibition of HCV1b BK NS3/4A protease expressed in Escherichia coli after 1 hr by time-resolved fluorescence assay; design: species or system Hepatitis C virus (isolate BK)
# [3] = tested on: Hepatitis C virus; test: Antiviral activity against HCV1b con1 infected in human Huh-7 cells assessed as inhibition of viral replication after 24 hrs in presence of 50% normal human serum; assay type: functional, organism-based, Hepacivirus hominis; conditions: Con1, Huh-7, 24 h
# [4] = Inhibition of HCV3a NS3/4A protease by time-resolved fluorescence assay; design: species or system Hepatitis C virus subtype 3a
# [5] = Drug level in Sprague-Dawley rat liver at 5 mg/kg, po after 4 hrs; assay type: ADME, organism-based; design: dose 5 mg/kg, route oral; conditions: read-out: Drug uptake
SMILES,IC50 [1] [nM],Ki [2] [nM],IC50 [3] [nM],Ki [4] [nM],concentration at 4 h [5] [nM]
C=C[C@@H]1C[C@]1(NC(=O)[C@@H]1C[C@@H]2CN1C(=O)[C@H](C1CCCC1)NC(=O)OCC(C)(C)CCCc1cc3c(nc4ccc(Cl)cc4c3cc1OC)O2)C(=O)NS(=O)(=O)C1CC1,7,< 0.02,31,36,–
C=C[C@@H]1C[C@]1(NC(=O)[C@@H]1C[C@@H]2CN1C(=O)[C@H](C1CCCC1)NC(=O)OCC(C)(C)CCCc1cc3c(nc4cc(C)ccc4c3cc1OC)O2)C(=O)NS(=O)(=O)C1CC1,4,< 0.02,15,1.9,16000
C=C[C@@H]1C[C@]1(NC(=O)[C@@H]1C[C@@H]2CN1C(=O)[C@H](C1CCCC1)NC(=O)OCC(C)(C)CCCc1cc3c(nc4cc(C#N)ccc4c3cc1OC)O2)C(=O)NS(=O)(=O)C1CC1,4,< 0.02,13,0.8,7500
C=C[C@@H]1C[C@]1(NC(=O)[C@@H]1C[C@@H]2CN1C(=O)[C@H](C1CCCC1)NC(=O)OCC(C)(C)CCCc1cc3c(nc4cc(F)ccc4c3cc1OC)O2)C(=O)NS(=O)(=O)C1CC1,9,< 0.02,43,0.9,22000
C=C[C@@H]1C[C@]1(NC(=O)[C@@H]1C[C@@H]2CN1C(=O)[C@H](C1CCCCC1)NC(=O)OCC(C)(C)CCCc1cc3c(cc(-c4ccc(F)cc4)nc3cc1OC)O2)C(=O)NS(=O)(=O)C1CC1,11,0.18,110,29,–
C=C[C@@H]1C[C@]1(NC(=O)[C@@H]1C[C@@H]2CN1C(=O)[C@H](C1CCCCC1)NC(=O)OCC(C)(C)CCCc1cc3c(cc(-c4cccnc4)nc3cc1OC)O2)C(=O)NS(=O)(=O)C1CC1,27,–,92,55,200
C=C[C@@H]1C[C@]1(NC(=O)[C@@H]1C[C@@H]2CN1C(=O)[C@H](C1CCCCC1)NC(=O)OCC(C)(C)CCCc1cc3c(cc(NC4CCCCC4)nc3cc1OC)O2)C(=O)NS(=O)(=O)C1CC1,39,0.12,1200,7.6,–
C=C[C@@H]1C[C@]1(NC(=O)[C@@H]1C[C@@H]2CN1C(=O)[C@H](C1CCCC1)NC(=O)OCC(C)(C)CCCc1cc3c(cc(OCc4ncn(C)n4)nc3cc1OC)O2)C(=O)NS(=O)(=O)C1CC1,36,0.03,170,1,30
C=C[C@@H]1C[C@]1(NC(=O)[C@@H]1C[C@@H]2CN1C(=O)[C@H](C1CCCC1)NC(=O)OCC(C)(C)CCCc1cc3c(cc(OCc4ncco4)nc3cc1OC)O2)C(=O)NS(=O)(=O)C1CC1,4,< 0.02,16,1.1,2600
C=C[C@@H]1C[C@]1(NC(=O)[C@@H]1C[C@@H]2CN1C(=O)[C@H](C1CCCCC1)NC(=O)OCC(C)(C)CCCc1cc3c(cc4nccn4c3cc1OC)O2)C(=O)NS(=O)(=O)C1CC1,43,0.04,140,1.8,800
C=C[C@@H]1C[C@]1(NC(=O)[C@@H]1C[C@@H]2CN1C(=O)[C@H](C1CCCCC1)NC(=O)OCC(C)(C)CCCc1ccc3c(c1)c(cc1nccn13)O2)C(=O)NS(=O)(=O)C1CC1,33,0.08,180,5.2,700
C=C[C@@H]1C[C@]1(NC(=O)[C@@H]1C[C@@H]2CN1C(=O)[C@H](C1CCCC1)NC(=O)OCC(C)(C)CCCc1cc3c(nc4ccccc4c3cc1OC)O2)C(=O)NS(=O)(=O)C1CC1,3,< 0.02,29,1.7,27000
